Source: patent US6855710B2, “Substituted indolines with an inhibitory effect on various kinases and complexes of CDKs” (Boehringer Ingelheim Pharma KG, priority 1998, dated 2005)
pIC50: −log10 of the molar value. Read-outs that look alike come from different tables or passages of the source.

Legend:
[1] = system: Leimyosarcoma tumour cell line SK-UT-1B; assay: Inhibition of the proliferation of cultivated human tumour cells (Test 2); format: cell-based; details: SK-UT-1B cells, 48 hours' incubation, then 14C-thymidine for a further 24 hours, inhibition of incorporated 14C-thymidine, read-out: Inhibition of SKUT-1B-proliferation IC50
Protocol: Inhibition of the Proliferation of Cultivated Human Tumour Cells
Cells of the Leimyosarcoma tumour cell line SK-UT-1B (obtained from the American Type Culture Collection (ATCC)) were cultivated in Minimum Essential Medium with non-essential amino acids (Gibco), supplemented with sodium pyruvate (1 mmol), glutamine (2 mmol) and 10% foetal calf serum (Gibco) and harvested during the log-growth phase. Then the SK-UT-1B cells were added to Cytostar® multi-well plates (Amersham) at a density of 4000 cells per well and incubated overnight in an incubator. Various concentrations of the compounds (dissolved in DMSO; final concentration: <1%) were added to the cells. After 48 hours' incubation ^14C-thymidine (Amersham) was added to each well and incubation was continued for a further 24 hours. The quantity of ^14C-thymidine incorporated into the tumour cells in the presence of the inhibitor and representing the number of cells in the S phase was measured in a Wallace 1450 Microbeta Liquid Scintillation Counter. IC50 values for the inhibition of proliferation (=inhibition of incorporated ^14C-thymidine) were calculated, correcting for the background radiation. All the measurements were done twice.
The Table which follows contains the results obtained in in vitro test 2: […]

| SMILES | melting point [°C] | pIC50 ([1]; Homo sapiens, Skut1B) | pIC50 [1] |
| --- | --- | --- | --- |
| CN(C)Cc1ccc(N/C(=C2\C(=O)Nc3ccc([N+](=O)[O-])cc32)c2ccccc2)cc1 [Example 117, (Z)-3-[1-(4-dimethylaminomethyl-phenylamino)-1-phenyl-methylidene]-5-nitro-2-indolinone] | 264 to 265 | 6.47 |  |
| O=C1Nc2ccc([N+](=O)[O-])cc2/C1=C(/Nc1ccc(CCN2CCOCC2)cc1)c1ccccc1 [Example 133, (Z)-3-{1-[4-(2-morpholinoethyl)-phenylamino]-1-phenyl-methylidene}-5-nitro-2-indolinone] | 304 to 306 | 6.32 |  |
| CN(C)CCc1ccc(N/C(=C2\C(=O)Nc3ccc([N+](=O)[O-])cc32)c2ccccc2)cc1 [Example 134, (Z)-3-{1-[4-(2-dimethylamino-ethyl)-phenylamino]-1-phenyl-methylidene}-5-nitro-2-indolinone] | 238 to 240 | 6.25 |  |
| O=C1Nc2ccc([N+](=O)[O-])cc2/C1=C(/Nc1ccc(CN2CCCCC2)cc1)c1ccccc1 [Example 170, (Z)-3-[1-(4-piperidinomethyl-phenylamino)-1-phenyl-methylidene]-5-nitro-2-indolinone] | 242 to 243 | 6.66 |  |

The remaining lines, values ahead:

| melting point [°C] | pIC50 ([1]; Homo sapiens, Skut1B) | pIC50 [1] | SMILES |
| --- | --- | --- | --- |
|  |  | 6.82 | CN(C)CCN(c1ccc(N/C(=C2\C(=O)Nc3ccccc32)c2ccccc2)cc1)S(C)(=O)=O [Example 188] |
| 272 to 274 |  |  | CN(C)CCN(C(=O)c1ccccc1)c1ccc(N/C(=C2\C(=O)Nc3ccccc32)c2ccccc2)cc1 [Example 452, (Z)-3-[1-(4-(N-(2-dimethylaminoethyl)-N-benzoyl-amino)-phenylamino)-1-phenyl-methylidene]-2-indolinone] |
| 225 to 227 |  |  | CCCCS(=O)(=O)N(CCN(C)C)c1ccc(N/C(=C2\C(=O)Nc3ccccc32)c2ccccc2)cc1 [Example 453, (Z)-3-[1-(4-(N-(2-dimethylaminoethyl)-N-butylsulphonyl-amino)-phenylamino)-1-phenyl-methylidene]-2-indolinone] |
| 213 to 215 |  |  | Cc1ccc(S(=O)(=O)N(CCN(C)C)c2ccc(N/C(=C3\C(=O)Nc4ccccc43)c3ccccc3)cc2)cc1 [Example 454, (Z)-3-[1-(4-(N-(2-dimethylaminoethyl)-N-(p-tolylsulphonyl)-amino)-phenylamino)-1-phenyl-methylidene]-2-indolinone] |
